# Data taken from US20060183122A1, “Fanc gene mutations in cancer” (priority 2002, published 2006).
# Entries after “also recorded” stand apart in the source; their conditions may differ.
# Tests used:
# Assay type in all cases: cell-based
# [1] = test system: CAPAN1; experiment: Survival study, manual (hemacytometer) cell counts; details: manual cell counts after 3-4 population doublings (FIG. 3C)
# Experimental: (§1) Cell counts: 1×10^5 cells were plated in tissue culture flasks (25 cm^2). The next day, the medium was substituted with MMC-containing medium (range 0-4.5 μM). Cells were counted after 3-4 population doublings (4-7 days) using a hemacytometer. Four experiments per cell line/concentration were done.
# (§2) To confirm the results obtained with the Picogreen assay, we also assessed sensitivity to MMC of the cell lines MiaPaCa2, Su86.86, CAPAN1 and Hs766T with manual (hemacytometer) cell counts. This assay confirmed their hypersensitivity to MMC (FIG. 3C). The FA-defective HNSCC cell line FaDu was also hypersensitive to MMC (FIG. 3D), but not to cisplatin (FIG. 3E), as compared to the FA-proficient HNSCC cell lines A-253 and Detroit 562.
# [2] = test system: Hs766T; experiment: Survival study, manual (hemacytometer) cell counts; details: manual cell counts after 3-4 population doublings (FIG. 3C)
# Experimental: as §1, §2
# [3] = test system: CAPAN1; experiment: G2/M cell cycle arrest after MMC treatment (flow cytometry); details: MMC 2 hours, analyzed 48 hours later, arrest = twofold increase of 4N fraction vs untreated
# Experimental: (§3) Cells were cultured in 25 cm^2 flasks and treated with MMC for two hours. Cells were washed with PBS and incubated with normal tissue culture medium for 48 hours.
# (§4) Cells were obtained by trypsinization and resuspended in 3.7% paraformaldehyde in PBS, stained with Hoechst 33258 (Sigma), incubated at 4° C. for 10 min and analyzed using a flow cytometer. A “G2/M arrest” was defined as a twofold increase of the percentage of cells in G2/M, as compared to untreated cells.
# (§5) The methods used to investigate cell “survival” upon treatment with MMC and cisplatin sum the effects of cell death, slow growth and the occurrence of a cell cycle arrest. To determine the potential contribution of an arrest, we analyzed cell cycle distributions of DNA content after MMC treatment. Six pancreatic cancer cell lines (BxPC3, MiaPaCa2, Su86.86, PL11, Hs766T and CAPAN1) and one HNSCC cell line (FaDu) were analyzed 48 hours after MMC treatment for 2 hours; a G2/M arrest was defined as a twofold increase of the fraction of cells containing 4N DNA content, as compared to untreated cells (FIG. 4). Hs766T arrested in G2/M at a MMC concentration of 100 nM, PL11 at 100 nM, CAPAN1 at 200 nM and FaDu at 500 nM, whereas control pancreatic cancer cell lines MiaPaCa2, Su86.86 and BxPC3 […] at MMC concentrations as high as 2 μM.
# [4] = test system: Hs766T; experiment: as above; details: MMC 2 hours, analyzed 48 hours later, arrest = twofold increase of 4N fraction vs untreated
# Experimental: as §3, §4, §5
# [5] = test system: PL11; experiment: as above; details: MMC 2 hours, analyzed 48 hours later, arrest = twofold increase of 4N fraction vs untreated
# Experimental: as §3, §4, §5
# [6] = test system: FaDu; experiment: as above; details: MMC 2 hours, analyzed 48 hours later, arrest = twofold increase of 4N fraction vs untreated
# Experimental: as §3, §4, §5
# [7] = test system: BxPC3; experiment: as above; details: BxPC3 (control line); MMC 2 hours, analyzed 48 hours later; concentrations as high as
# Experimental: as §3, §4, §5
# [8] = test system: MiaPaCa2; experiment: as above; details: MiaPaCa2 (control line); MMC 2 hours, analyzed 48 hours later; concentrations as high as
# Experimental: as §3, §4, §5
# [9] = test system: Su86.86; experiment: as above; details: Su86.86 (control line); MMC 2 hours, analyzed 48 hours later; concentrations as high as
# Experimental: as §3, §4, §5
# [10] = test system: Hs766T (FANCG-mutated); experiment: Survival study, Picogreen DNA quantitation
# Experimental: (§6) Cells were incubated for a period of time long enough to allow non-treated cells to reach at least a threefold increase in fluorescence as compared to day 1 (3-7 days). Medium was changed every 48 hours. Cells were washed with PBS, and lysed in 100 μL sterile water. After 1 hour, 100 μl 0.5% Picogreen (Molecular Probes, Eugene, Oreg.) in tris-EDTA buffer was added to each well. After 45 minutes, wells were read in a fluorometer. Survival was calculated as a percentage; the wells without drugs were considered as 100 percent. Each experiment was done in duplicate; at least six experiments per cell line per concentration were performed.
# (§7) The FA-defective pancreatic cancer cell lines Hs766T (FANCG-mutated), PL11 (FANCC-mutated) and CAPAN1 (BRCA2-mutated) and FA-proficient cell lines Su86.86 and MiaPaCa2 were treated with various concentrations of either MMC or cisplatin, and incubated in 96-well plates. Relative cell numbers were determined by measurement of doublestranded DNA content using Picogreen; wells containing no compound were used as controls. […] The FA-defective cell lines
# [11] = test system: PL11 (FANCC-mutated); experiment: Survival study, Picogreen DNA quantitation
# Experimental: as §6, §7
# [12] = test system: CAPAN1 (BRCA2-mutated); experiment: Survival study, Picogreen DNA quantitation
# Experimental: as §6, §7
# [13] = test system: FaDu (FA-defective); experiment: Survival study, Picogreen DNA quantitation
# [14] = test system: Su86.86; experiment: Survival study, Picogreen DNA quantitation; details: compared to MiaPaCa2, less sensitive than CAPAN1 and PL11
# Experimental: as §6, §7
# [15] = 3-7 days, compared to MiaPaCa2 and Su86.86 (FIG. 3A)
compound,measurement,setting,value
"CO[C@@]12[C@H](COC(N)=O)C3=C(C(=O)C(C)=C(N)C3=O)N1C[C@@H]1N[C@@H]12 [MMC, mitomycin C]",Sensitivity to MMC,[1],hypersensitivity
same,Sensitivity to MMC,[2],hypersensitivity
same,MMC concentration at which cells arrested in G2/M,[3],200 nM
same,MMC concentration at which cells arrested in G2/M,[4],100 nM
same,MMC concentration at which cells arrested in G2/M,[5],100 nM
same,MMC concentration at which cells arrested in G2/M,[6],500 nM
same,MMC concentration at which cells arrested in G2/M,[7],2 µM
same,MMC concentration at which cells arrested in G2/M,[8],2 µM
same,MMC concentration at which cells arrested in G2/M,[9],2 µM
same,Sensitivity to MMC,[10]; [15],hypersensitive; also recorded: increased sensitivity
same,Sensitivity to MMC,[11]; [15],hypersensitive; also recorded: increased sensitivity
same,Sensitivity to MMC,[12]; [15],hypersensitive; also recorded: increased sensitivity
same,Sensitivity to MMC,[13]; compared to A-253 and Detroit 562 (FIG. 3D),hypersensitive
N.N.[Cl][Pt][Cl] [cisplatin],Sensitivity to cisplatin,[14],increased sensitivity
same,Sensitivity to cisplatin,"[10]; compared to MiaPaCa2, less sensitive than CAPAN1 and PL11",increased sensitivity
same,Sensitivity to cisplatin,[11]; 3-7 days (FIG. 3B),hypersensitive
same,Sensitivity to cisplatin,[12]; 3-7 days (FIG. 3B),hypersensitive
same,Hypersensitive to cisplatin,[13]; compared to A-253 and Detroit 562 (FIG. 3E),not
